Assay results taken from patent US7399638B2, “Prediction method for lipidosis” (Takeda Pharmaceutical Company Limited, priority 2003, dated 2008).
Where two headings read alike, the source gives them in different places. Marks after values point to notes of the source that are not given here. Each block holds one compound with its values, some of them ahead of it.

Assays:
Crj: CD(SD)IGS rats [1] = experiment: Urinary PAG/hippuric acid ratio by 1H NMR in rats
Crj: CD(SD)IGS rats [2] = conditions: rat, in vivo
Procedure: (§1) The following 10 kinds of commercially available drugs were examined as the test compounds for a potential of inducing PLsis by histopathological examination and peripheral blood lymphocyte testing.
(§2) The following experiments were performed using the prematurely autopsied animals.
(§3) The high-dose dosing suspension was diluted about 3 fold and 10 fold with dispersant/solvent to prepare intermediate- and low-dose dosing suspensions. […] [For LD50, the Summary Basis of Approval (FDA) for each drug was referenced to.]
(§4) The animals were examined for mortality, general conditions, body weight, food consumption and the like using PM4800 (Mettler) and EB3200D (Shimadzu Corporation).

Crj: CD(SD)IGS rats [3] = conditions: male, rat, in vivo, 3 days
Procedure: as §1, §2, §3, §4
Hematological examination was performed for parameters such as RBC count, hematocrit, hemoglobin concentration, mean corpuscular hemoglobin (MCH), mean corpuscular hemoglobin concentration (MCHC), mean corpuscular volume (MCV), platelet count, WBC count, reticulocyte count, differential WBC, and vacuolated lymphocyte ratio (for PLsis-inducing compounds only) using ADVIA120 (Bayer Medical Ltd.) and E-4000 (Sysmex Corporation).

[4] = rat 24-hour pooled urine, 30 mg/kg/day by gavage, 4 days, negative control drug, mean n = 2-4
[5] = rat 24-hour pooled urine, 100 mg/kg/day by gavage, 4 days, negative control drug, mean n = 2-4
[6] = rat urine, 30 mg/kg/day by gavage, 3 days, mean n = 3-4
[7] = rat urine, 100 mg/kg/day by gavage, 3 days, mean n = 3-4
[8] = rat urine, 300 mg/kg/day by gavage, 3 days, mean n = 3-4
[9] = rat urine, 25 mg/kg/day by gavage, 3 days, mean n = 3-4
[10] = rat urine, 75 mg/kg/day by gavage, 3 days, mean n = 3-4
[11] = rat urine, 250 mg/kg/day by gavage, 3 days, mean n = 3-4

SMILES: COc1ccc([C@]2(C#N)CC[C@@H](C(=O)O)CC2)cc1OC1CCCC1 [Ariflo]
- PAG + hippuric acid/creatinine (Crj: CD(SD)IGS rats [1]; [4]): 1.34
- PAG/PAG + hippuric acid (Crj: CD(SD)IGS rats [1]; [4]): 9.70%
- PAG/creatinine (first term of PAG + hippuric acid) (Crj: CD(SD)IGS rats [1]; [4]): 0.13
- PAG/hippuric acid (Crj: CD(SD)IGS rats [1]; [4]): 12.16%
- PAG + hippuric acid/creatinine (Crj: CD(SD)IGS rats [1]; [5]): 1.14
- PAG/PAG + hippuric acid (Crj: CD(SD)IGS rats [1]; [5]): 14.04%
- PAG/creatinine (first term of PAG + hippuric acid) (Crj: CD(SD)IGS rats [1]; [5]): 0.16
- PAG/hippuric acid (Crj: CD(SD)IGS rats [1]; [5]): 13.91%
- hippuric acid/creatinine (second term of PAG + hippuric acid) (Crj: CD(SD)IGS rats [1]; [5]): 0.98
- Histopathological changes (PLsis): Liver (Crj: CD(SD)IGS rats [2]; 30 mg/kg/day): −
- Histopathological changes (PLsis): Lung (Crj: CD(SD)IGS rats [2]; 30 mg/kg/day): −
- Histopathological changes (PLsis): Lymph node (Crj: CD(SD)IGS rats [2]; 30 mg/kg/day): −
- Histopathological changes (PLsis): Others (Crj: CD(SD)IGS rats [2]; 30 mg/kg/day): −
- Histopathological changes (PLsis): Spleen (Crj: CD(SD)IGS rats [2]; 30 mg/kg/day): −
- Histopathological changes (PLsis): Liver (Crj: CD(SD)IGS rats [2]; 100 mg/kg/day): −
- Histopathological changes (PLsis): Lung (Crj: CD(SD)IGS rats [2]; 100 mg/kg/day): −
- Histopathological changes (PLsis): Lymph node (Crj: CD(SD)IGS rats [2]; 100 mg/kg/day): −
- Histopathological changes (PLsis): Others (Crj: CD(SD)IGS rats [2]; 100 mg/kg/day): −
- Histopathological changes (PLsis): Spleen (Crj: CD(SD)IGS rats [2]; 100 mg/kg/day): −

SMILES: CNCCC(Oc1ccc(C(F)(F)F)cc1)c1ccccc1 (centres unmarked) [Fluoxetine, fluoxetine]
- PAG + hippuric acid/creatinine (Crj: CD(SD)IGS rats [1]; [6]): 1.13
- PAG/PAG + hippuric acid (Crj: CD(SD)IGS rats [1]; [6]): 15.60* %
- PAG/creatinine (first term of PAG + hippuric acid) (Crj: CD(SD)IGS rats [1]; [6]): 0.17
- PAG/hippuric acid (Crj: CD(SD)IGS rats [1]; [6]): 18.58* %
- hippuric acid/creatinine (second term of PAG + hippuric acid) (Crj: CD(SD)IGS rats [1]; [6]): 0.96
- PAG + hippuric acid/creatinine (Crj: CD(SD)IGS rats [1]; [7]): 1.06
- PAG/PAG + hippuric acid (Crj: CD(SD)IGS rats [1]; [7]): 25.90* %
- PAG/creatinine (first term of PAG + hippuric acid) (Crj: CD(SD)IGS rats [1]; [7]): 0.27
- PAG/hippuric acid (Crj: CD(SD)IGS rats [1]; [7]): 36.86* %
- hippuric acid/creatinine (second term of PAG + hippuric acid) (Crj: CD(SD)IGS rats [1]; [7]): 0.79
- PAG + hippuric acid/creatinine (Crj: CD(SD)IGS rats [1]; [8]): 0.67*
- PAG/PAG + hippuric acid (Crj: CD(SD)IGS rats [1]; [8]): 31.88* %
- PAG/creatinine (first term of PAG + hippuric acid) (Crj: CD(SD)IGS rats [1]; [8]): 0.20
- PAG/hippuric acid (Crj: CD(SD)IGS rats [1]; [8]): 56.32* %
- hippuric acid/creatinine (second term of PAG + hippuric acid) (Crj: CD(SD)IGS rats [1]; [8]): 0.47
- Mean vacuolated lymphocyte ratio (Crj: CD(SD)IGS rats [3]; 30 mg/kg/day): 7%
- Mean vacuolated lymphocyte ratio (Crj: CD(SD)IGS rats [3]; 100 mg/kg/day): 28%
- Mean vacuolated lymphocyte ratio (Crj: CD(SD)IGS rats [3]; 300 mg/kg/day): 31%
- Histopathological changes (PLsis): Liver (Crj: CD(SD)IGS rats [2]; 30 mg/kg/day): +
- Histopathological changes (PLsis): Lung (Crj: CD(SD)IGS rats [2]; 30 mg/kg/day): +
- Histopathological changes (PLsis): Lymph node (Crj: CD(SD)IGS rats [2]; 30 mg/kg/day): +
- Histopathological changes (PLsis): Others (Crj: CD(SD)IGS rats [2]; 30 mg/kg/day): Brain
- Histopathological changes (PLsis): Spleen (Crj: CD(SD)IGS rats [2]; 30 mg/kg/day): −
- Histopathological changes (PLsis): Liver (Crj: CD(SD)IGS rats [2]; 100 mg/kg/day): +
- Histopathological changes (PLsis): Lung (Crj: CD(SD)IGS rats [2]; 100 mg/kg/day): +
- Histopathological changes (PLsis): Lymph node (Crj: CD(SD)IGS rats [2]; 100 mg/kg/day): +
- Histopathological changes (PLsis): Others (Crj: CD(SD)IGS rats [2]; 100 mg/kg/day): Brain
- Histopathological changes (PLsis): Spleen (Crj: CD(SD)IGS rats [2]; 100 mg/kg/day): −
- Histopathological changes (PLsis): Liver (Crj: CD(SD)IGS rats [2]; 300 mg/kg/day): +
- Histopathological changes (PLsis): Lung (Crj: CD(SD)IGS rats [2]; 300 mg/kg/day): +
- Histopathological changes (PLsis): Lymph node (Crj: CD(SD)IGS rats [2]; 300 mg/kg/day): −
- Histopathological changes (PLsis): Others (Crj: CD(SD)IGS rats [2]; 300 mg/kg/day): −
- Histopathological changes (PLsis): Spleen (Crj: CD(SD)IGS rats [2]; 300 mg/kg/day): −

- PAG + hippuric acid/creatinine (Crj: CD(SD)IGS rats [1]; [7]): 1.21
- PAG/creatinine (first term of PAG + hippuric acid) (Crj: CD(SD)IGS rats [1]; [7]): 0.34
- hippuric acid/creatinine (second term of PAG + hippuric acid) (Crj: CD(SD)IGS rats [1]; [7]): 0.87
- PAG + hippuric acid/creatinine (Crj: CD(SD)IGS rats [1]; [8]): 0.71*
- PAG/creatinine (first term of PAG + hippuric acid) (Crj: CD(SD)IGS rats [1]; [8]): 0.40
- hippuric acid/creatinine (second term of PAG + hippuric acid) (Crj: CD(SD)IGS rats [1]; [8]): 0.31
SMILES: CN(C)CCCN1c2ccccc2CCc2ccccc21 [Imipramine, imipramine]

- PAG + hippuric acid/creatinine (Crj: CD(SD)IGS rats [1]; [9]): 1.34
- PAG/PAG + hippuric acid (Crj: CD(SD)IGS rats [1]; [9]): 13.25%
- PAG/creatinine (first term of PAG + hippuric acid) (Crj: CD(SD)IGS rats [1]; [9]): 0.18
- PAG/hippuric acid (Crj: CD(SD)IGS rats [1]; [9]): 15.42%
- PAG + hippuric acid/creatinine (Crj: CD(SD)IGS rats [1]; [10]): 1.23
- PAG/creatinine (first term of PAG + hippuric acid) (Crj: CD(SD)IGS rats [1]; [10]): 0.24
- hippuric acid/creatinine (second term of PAG + hippuric acid) (Crj: CD(SD)IGS rats [1]; [10]): 1.00
- PAG + hippuric acid/creatinine (Crj: CD(SD)IGS rats [1]; [11]): 1.29
- PAG/creatinine (first term of PAG + hippuric acid) (Crj: CD(SD)IGS rats [1]; [11]): 0.52
- hippuric acid/creatinine (second term of PAG + hippuric acid) (Crj: CD(SD)IGS rats [1]; [11]): 0.76
SMILES: CCN(CC)CCCC(C)Nc1ccnc2cc(Cl)ccc12 (centres unmarked) [Chloroquine, chloroquine]
